According to patent US9284322B2, “Nicotinic receptor compounds” (priority 2010, dated 2016):
Structures can show the parent of a compound that is named as a salt. Where two headings read alike, the source gives them in different places.

Legend:
mice [1] = assay: animal or person; format: in vivo, mouse; conditions: for ED50 Tail Flick / Tail Flick, % effect at dose (ED50 column): mice, s.c.; for ED50 Tail Flick: tested 5 min after injection; for Tail Flick, % effect at dose (ED50 column): @ 10 mg/kg; for ED50: Mus musculus, sc, 5 min, read-out: ED50 Tail Flick
Experimental: (§1) Antinociception was assessed by the tail-flick method of F. E. D'Amour and D. L. Smith (J. Pharmacol. Exp. Ther. 1941, 72, 74-79). A control response (2-4 sec) was determined for each mouse before treatment, and a test latency was determined after drug administration. In order to minimize tissue damage, a maximum latency of 10 sec was imposed. Antinociceptive response was calculated as percent maximum possible effect (% MPE), where % MPE=[(test−control)/(10−control)]×100. Groups of eight to twelve animals were used for each dose and for each treatment. […] Eight to twelve mice were treated per dose and a minimum of four doses were performed for dose-response curve determination.

mice [2] = assay: animal or person; format: in vivo, mouse; conditions: for ED50 Hot Plate / Hot Plate, % effect at dose (ED50 column): mice, s.c.; for ED50 Hot Plate: tested 5 min after injection; for Hot Plate, % effect at dose (ED50 column): @ 10 mg/kg; for ED50: Mus musculus, sc, 5 min, read-out: ED50 Hot Plate
Experimental: (§2) Mice were placed into a 10 cm wide glass cylinder on a hot plate (Thermojust Apparatus) maintained at 55.0° C. Two control latencies at least […] apart were determined for each mouse. The normal latency (reaction time) was 8 to 12 sec. Antinociceptive response was calculated as percent maximum possible effect (% MPE), where % MPE=[(test−control)/40−control)×100]. The reaction time was scored when the animal jumped or licked its paws.

mice [3] = format: in vivo, mouse; conditions: for AD50 Tail Flick / Tail Flick, % effect at dose: mice; for AD50 Tail Flick: antagonist test; for Tail Flick, % effect at dose: @ 100 μg/kg
Experimental: as §1
(§3) Table 6 provides data for a number of compounds of the invention that were tested according to the assays described above.

[4] = molecular target: homomeric nAChRs containing the alpha7 subunit (α7) (Rattus norvegicus (Rat), UniProt Q05941); assay: biochemical; format: binding
mice [5] = assay: animal or person; format: in vivo, mouse; conditions: for ED50: Mus musculus, sc, 0.5 h, read-out: ED50 Hypothermia
Experimental: Rectal temperature was measured by a thermistor probe (inserted 24 mm) and digital thermometer (Yellow Springs Instrument Co., Yellow Springs, Ohio). […] The difference in rectal temperature before and after treatment was calculated for each mouse. The ambient temperature of the laboratory varied from 21-24° C. from day to day.

mice [6] = assay: animal or person; format: in vivo, mouse; conditions: for ED50: Mus musculus, sc, read-out: ED50 Spontaneous Activity
Experimental: (§4) Interruptions of the photocell beams (two banks of eight cells each) were then recorded for the next 10 min. Data were expressed as number of photocell interruptions.

[7] = molecular target: heteromeric nAChRs containing alpha and beta subunits (αβ; alpha4 beta2 predominant) (Rattus norvegicus, UniProt P09483+P12390); format: binding; conditions: read-out: αβ [3H]Epibatidine (Ki)
Experimental: The alpha4 beta2 subtype is the predominant nAChR present in brain tissue used in this assay.
Adult male rat cerebral cortices (Pelfreeze Biological, Rogers, Ark.) were homogenized in 39 volumes of ice-cold 50 mM Tris buffer (pH 7.4 at 4° C.) containing 120 mM NaCl, 5 mM KCl, 2 mM CaCl2, and 1 mM MgCl2 and sedimented at 37,000 g for 10 min at 4° C. The supernatant was discarded, the pellet resuspended in the original volume of buffer, and the wash procedure repeated twice more. After the last centrifugation, the pellet was resuspended in 1/10 its original homogenization volume and stored at −80° C. until needed. […] After a 4-h incubation period at room temperature, the samples were vacuum-filtered over GF/B filter papers presoaked in 0.03% polyethylenimine using a Brandel 48-well harvester and washed with 6 mL of ice-cold buffer. The amount of radioactivity trapped on the filter was determined by standard liquid scintillation techniques in a TriCarb 2200 scintillation counter (Packard Instruments, Meriden, Conn.) at approximately 50% efficiency. The binding data were fit using the nonlinear regression analysis routines in Prism (Graphpad, San Diego, Calif.). The Ki values for the test compounds were calculated from their respective IC50 values using the Cheng-Prusoff equation.

mice [8] = format: in vivo, mouse; conditions: for AD50 Hot Plate: antagonist test
Experimental: as §2, with “The normal latency (reaction time) was 8 to 12 sec.” left out
as §3

mice [9] = assay: Functional agonist tests (nAChR animal assays); conditions: mouse, in vivo
Experimental: as §1
as §2, with “The normal latency (reaction time) was 8 to 12 sec.” left out
as §4
Rectal temperature was measured by a thermistor probe (inserted 24 mm) and digital thermometer (Yellow Springs Instrument Co., Yellow Springs, Ohio). […]

[10] = rat cerebral cortex homogenate, 40-50 pM [125I]MLA, read-out: α7 [125I]iodoMLA (Ki)
[11] = mice, s.c., rectal temperature 30 min after injection
[12] = mice, s.c., 5 min after administration, recorded for 10 min

Chain of homomeric nAChRs containing the alpha7 subunit (α7) (Q05941 23-502 limits assumed): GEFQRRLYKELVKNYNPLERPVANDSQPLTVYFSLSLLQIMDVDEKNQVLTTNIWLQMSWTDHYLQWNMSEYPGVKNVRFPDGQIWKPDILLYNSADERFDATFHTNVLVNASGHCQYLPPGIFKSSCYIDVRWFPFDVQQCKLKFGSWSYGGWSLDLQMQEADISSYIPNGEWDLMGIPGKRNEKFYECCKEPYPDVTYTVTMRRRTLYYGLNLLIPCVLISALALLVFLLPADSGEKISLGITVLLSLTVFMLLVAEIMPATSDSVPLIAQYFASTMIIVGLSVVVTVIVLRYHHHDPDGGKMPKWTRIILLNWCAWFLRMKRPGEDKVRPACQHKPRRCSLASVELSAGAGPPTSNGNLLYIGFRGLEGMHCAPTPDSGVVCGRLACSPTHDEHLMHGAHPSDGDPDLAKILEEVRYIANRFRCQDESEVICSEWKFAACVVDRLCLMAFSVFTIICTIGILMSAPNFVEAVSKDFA

| SMILES | AD50 Tail Flick (mice [3]) | Ki [4, 10] [nM] | ED50 Hypothermia (mice [5]; [11]) | ED50 Spontaneous Activity (mice [6]; [12]) | Ki [7] [nM] | Tail Flick, % effect at dose (ED50 column) (mice [1]) [% @ 10] | Hot Plate, % effect at dose (ED50 column) (mice [2]) [% @ 10] | further results |
| --- | --- | --- | --- | --- | --- | --- | --- | --- |
| Fc1ncc(C2CC3CCC2N3)cc1-c1cccnc1 (centres unmarked) | 3 (0.5-24) μg/kg | 5500 ± 1420 | 3.7 (2.9-4.5) mg/kg | 0.69 (0.4-12.8) mg/kg | 0.35 ± 0.038 | – | – | ED50 Tail Flick (mice [1]): 4.9 (3.6-6.7) mg/kg; ED50 Hot Plate (mice [2]): 5 (3.7-6.7) mg/kg; Hot Plate, % effect at dose (mice [8]; @ 1000 μg/kg): 10% @ 1000 |
| Fc1ccc(-c2cc(C3CC4CCC3N4)cnc2F)cn1 (centres unmarked) | – | 4850 ± 1800 | 0.68 (0.52-1.1) mg/kg | 0.38 (0.13-1.1) mg/kg | 0.049 ± 0.02 | – | – | ED50 Tail Flick (mice [1]): 3.6 (2.7-4.7) mg/kg; ED50 Hot Plate (mice [2]): 3.27 (2.1-5.3) mg/kg; Tail Flick, % effect at dose (mice [3]): 1% @ 100; Hot Plate, % effect at dose (mice [8]; @ 100 μg/kg): 1% @ 100 |
| Fc1ncc(C2CC3CCC2N3)cc1-c1ccc(Cl)nc1 (centres unmarked) | 9 (2-38) μg/kg | 6600 ± 731 | 3.11 (1.5-5.1) mg/kg | 1.58 (0.5-4.4) mg/kg | 0.063 ± 0.08 | 10 | 27 | AD50 Hot Plate (mice [8]): 2001 (297-3610) μg/kg |
| Nc1ccc(-c2cc(C3CC4CCC3N4)cnc2F)cn1 (centres unmarked) | 30 (3-35) μg/kg | 1470 ± 203 | 2.8 (2-3.8) mg/kg | 1.84 (0.5-6.3) mg/kg | 0.25 ± 0.033 | 5 | 8 | Hot Plate, % effect at dose (mice [8]; @ 10 μg/kg): 50% @ 10 |
| COc1ccc(-c2cc(C3CC4CCC3N4)cnc2F)cn1 (centres unmarked) | 21 (3-125) μg/kg | 524 ± 110 | 0.77 (0.51-1.2) mg/kg | 0.53 (0.19-1.1) mg/kg | 0.13 ± 0.027 | – | – | ED50 Tail Flick (mice [1]): 4.22 (3-5.3) mg/kg; ED50 Hot Plate (mice [2]): 1.72 (0.9-3.4) mg/kg; Hot Plate, % effect at dose (mice [8]; @ 100 μg/kg): 0% @ 100 |
| Fc1ncc(C2CC3CCC2N3)cc1-c1ccncc1 (centres unmarked) | 12 (10-172) μg/kg | 9700 ± 2400 | 1.69 (1.1-2.6) mg/kg | 0.38 (0.2-2.7) mg/kg | 0.12 ± 0.03 | 13 | 40 | AD50 Hot Plate (mice [8]): 290 (19-991) μg/kg |
| Fc1cc(-c2cc(C3CC4CCC3N4)cnc2F)ccn1 (centres unmarked) | 4 (0.1-70) μg/kg | 7300 ± 150 | 1.58 (0.97-2.1) mg/kg | 0.17 (0.08-1.5) mg/kg | 0.067 ± 0.01 | 5 | 18 | AD50 Hot Plate (mice [8]): 117 (110-1100) μg/kg |
| Fc1ncc(C2CC3CCC2N3)cc1-c1ccnc(Cl)c1 (centres unmarked) | 320 (45-3262) μg/kg | > 10000 | 2.74 (1.89-3.5) mg/kg | 1.01 (0.27-3.7) mg/kg | 1.18 ± 0.14 | 11 | 19 | AD50 Hot Plate (mice [8]): 1370 (180-1430) μg/kg |
| Nc1cc(-c2cc(C3CC4CCC3N4)cnc2F)ccn1 (centres unmarked) | 9 (0.4-19) μg/kg | 719 ± 101 | 1.87 (0.1-3.5) mg/kg | 0.61 (0.04-9.1) mg/kg | 0.13 ± 0.005 | 11 | 12 | Hot Plate, % effect at dose (mice [8]; @ 10,000 μg/kg): 10% @ 10,000 |
| COc1cc(-c2cc(C3CC4CCC3N4)cnc2F)ccn1 (centres unmarked) | – | 7900 ± 1080 | – | – | 0.04 ± 0.012 | – | – | – |
| Fc1cc(-c2cncc(C3CC4CCC3N4)c2)ccn1 (centres unmarked) (as salt: fumarate) | – | – | – | – | – | – | – | melting point: 210 to 214 °C |
| COc1cc(-c2cncc(C3CC4CCC3N4)c2)ccn1 (centres unmarked) (as salt: fumarate) | – | – | – | – | – | – | – | melting point: 160 to 164 °C |
| Fc1ncc(C2CC3CCC2N3)cc1-c1cncnc1 (stereo not drawn) (as salt: fumarate) [2-exo-2′-Fluoro-3′-(pyrimidin-5-yl)deschloroepibatidine fumarate] | – | – | – | – | – | – | – | melting point: 160 to 163 °C |
| Clc1ncc(C2CC3CCC2N3)cc1-c1cncnc1 (stereo not drawn) (as salt: fumarate) [Cl, 2-exo-2′-Chloro-3′-(pyrimidin-5-yl)deschloroepibatidine fumarate] | – | – | – | – | – | – | – | melting point: 199 to 203 °C |
| c1ncc(-c2cncc(C3CC4CCC3N4)c2)cn1 (stereo not drawn) (as salt: fumarate) [H, 2-exo-3′-(Pyrimidin-5-yl)deschloroepibatidine fumarate] | – | – | – | – | – | – | – | melting point: 172 to 176 °C |
| Clc1ccc(C2CC3CCC2N3)cn1 (single isomer, unassigned; (-)) [(−)-epibatidine, reference compound] | – | – | – | – | – | – | – | ED50 (mice [2]): 0.004 mg/kg |
| Clc1ncc(C2CC3CCC2N3)cc1-c1cncnc1 (stereo not drawn) [Cl, 2-exo-2′-Chloro-3′-(pyrimidin-5-yl)deschloroepibatidine fumarate] | – | – | – | – | – | – | – | ED50 (mice [1]): 0.28 mg/kg; ED50 (mice [2]): 0.25 mg/kg; Tail Flick, % effect at dose (mice [3]): 5% @ 100; Ki [4]: 170 ± 64 nM; ED50 (mice [5]): 0.03 mg/kg; ED50 (mice [6]): 0.027 mg/kg; Hot Plate, % effect at dose (mice [8]; @ 100 μg/kg): 2% @ 100 |
| Fc1ncc(C2CC3CCC2N3)cc1-c1cncnc1 (stereo not drawn) [F, 2-exo-2′-Fluoro-3′-(pyrimidin-5-yl)deschloroepibatidine fumarate] | 0.24 µg/kg | – | – | – | – | – | – | ED50 (mice [1]): 2.15 mg/kg; ED50 (mice [2]): 1.2 mg/kg; Ki [4]: 1930 nM; ED50 (mice [5]): 0.25 mg/kg; ED50 (mice [6]): 0.15 mg/kg; Hot Plate, % effect at dose (mice [8]; @ 100 μg/kg): 33% @ 100 |
| c1ncc(-c2cncc(C3CC4CCC3N4)c2)cn1 (stereo not drawn) [H, 2-exo-3′-(Pyrimidin-5-yl)deschloroepibatidine fumarate] | – | – | – | – | – | – | – | ED50 (mice [1]): 1.5 mg/kg; ED50 (mice [2]): 1.63 mg/kg; Tail Flick, % effect at dose (mice [3]): 15% @ 100; Ki [4]: 32.5 ± 1.3 nM; ED50 (mice [5]): 0.6 mg/kg; ED50 (mice [6]): 0.32 mg/kg; Hot Plate, % effect at dose (mice [8]; @ 100 μg/kg): 0% @ 100 |
| CN1CCCC1c1cccnc1 (centres unmarked) [Nicotine, reference compound] | – | – | – | – | – | – | – | ED50 (mice [1]): 1.3 mg/kg; ED50 (mice [2]): 0.65 mg/kg; ED50 (mice [5]): 1 mg/kg; ED50 (mice [6]): 0.5 mg/kg |
| c1cnc2cc3c(cc2n1)[C@@H]1CNC[C@H]3C1 [varenicline, reference compound] | 0.2 µg/kg | – | – | – | – | 11 | 10 | functional antagonism in the tail-flick test (in words) (mice [3]; mouse, in vivo): functional antagonists; ED50 (mice [5]; [11]): 2.8 mg/kg; ED50 (mice [6]; [12]): 2.1 mg/kg; activity in one or more of the functional agonist tests (in words) (mice [9]): partial agonists; AD50 Hot Plate (mice [8]): 470 µg/kg |
